Experimental data taken from paper PMC6825211 (Nature Communications, 2019).
Several values for one entry are separate records, joined by “and”; a condition that tells them apart may be missing. Identical values can stand only once.

How the values were obtained:
[1] = MLD–STZ model: body weight; type: in vivo, mouse; settings: 5 mg/kg i.p. daily, 35 days
[2] = system: obese diabetic Lepr db/db mice; test: db/db model: ipITT; type: in vivo, mouse; parameters: ipITT: unit not given here; settings: for ipITT normalized to 100: MEAN
Text: Data are representative of six mice per group (n = 6 for (a–f)). g–j Mice were killed at day 31. g β-cell mass (given as percentage of the whole pancreatic section from ten sections spanning the width of the pancreas; n = 5 mice/group) and quantitative analyses from triple stainings for (h) TUNEL, (i) Ki67, (j) pHH3, and (k) nuclear PDX1 expression, insulin, and DAPI expressed as percentage of TUNEL-, Ki67-, pHH3-, or nuclear PDX1-positive β-cells ± SEM. An average number of 13667 (h), 5937 (i), 7108 (j), or 4330 (k) β-cells were counted from n = 3–5 (h, i, k) or n = 5–6 (j) mice/group.
For intraperitoneal glucose tolerance tests, mice were fasted 12 h overnight and injected i.p. with glucose (40%; B.Braun, Melsungen, Germany) at a dose of 1 g/kg body weight. Blood samples were obtained at time points 0, 15, 30, 60, 90, and 120 min for glucose measurements by using a Glucometer. For i.p. insulin tolerance tests, mice were injected with 0.75 U/kg body weight recombinant human insulin (Novolin, Novo Nordisk) after 4–5-h fasting, and glucose concentration was determined with the Glucometer. Insulin secretion was measured before (0 min) and after (15 and 30 min) i.p. injection of glucose (2 g/kg) and measured by using ultrasensitive mouse Elisa kit (ALPCO Diagnostics, Salem, NH).

[3] = system: obese diabetic Lepr db/db mice; test: db/db model: β-cell proliferation (pHH3); type: in vivo, mouse; settings: dbdb mice
LCK = LCK (Homo sapiens, UniProt P06239); test: biochemical; settings: read-out: % inhibition by neratinib
MST1 [4] = target: T1, MST1 (Homo sapiens, UniProt Q13043); test: biochemical
T1 sequence (Q13043 1-487): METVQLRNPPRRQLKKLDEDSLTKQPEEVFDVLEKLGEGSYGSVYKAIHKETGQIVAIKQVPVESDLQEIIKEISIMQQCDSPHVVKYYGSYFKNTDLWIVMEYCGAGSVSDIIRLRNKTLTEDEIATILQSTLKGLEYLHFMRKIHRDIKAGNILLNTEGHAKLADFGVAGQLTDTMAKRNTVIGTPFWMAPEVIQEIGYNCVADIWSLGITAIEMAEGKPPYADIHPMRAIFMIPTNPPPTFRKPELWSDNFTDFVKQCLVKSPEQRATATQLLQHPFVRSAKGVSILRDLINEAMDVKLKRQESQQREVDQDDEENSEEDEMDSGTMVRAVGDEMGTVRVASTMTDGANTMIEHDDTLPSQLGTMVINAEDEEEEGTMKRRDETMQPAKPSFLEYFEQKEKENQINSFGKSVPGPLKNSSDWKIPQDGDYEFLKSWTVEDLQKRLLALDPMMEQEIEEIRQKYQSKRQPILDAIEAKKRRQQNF

MST1 [5] = target: T1, MST1; test: LanthaScreen Eu kinase binding assay (HTS and dose response); parameters: purchased ThermoFisher; settings: three experiments
Method: A total of 39 hits were selected for 9-point dose response confirmation in triplicate, starting at 1 μM followed by 1:5 serial dilution.
Compounds in 1000× DMSO stock solution were dispensed by using Echo555 liquid dispensing system (Labcyte, CA) to 1536-well microplate (Corning, NY). Kinase buffer A (ThermoFisher, MA) was prepared and added to each well. […] Each reagent was added to the microplate in equal volume.
db/db model: body weight = settings: 5 mg/kg i.p. daily, 31 days
MEK6 = MEK6 (Homo sapiens, UniProt P52564); test: Nanosyn kinase profiling, mobility shift assay; settings: read-out: % inhibition by neratinib
P38-ALPHA = P38-ALPHA (Homo sapiens, UniProt Q16539); test: Nanosyn kinase profiling, mobility shift assay; settings: read-out: % inhibition by neratinib
PRKACA = PRKACA (Homo sapiens, UniProt P17612); test: Nanosyn kinase profiling, mobility shift assay; settings: read-out: % inhibition by neratinib
PRKD2 = PRKD2 (Homo sapiens, UniProt Q9BZL6); test: Nanosyn kinase profiling, mobility shift assay; settings: read-out: % inhibition by neratinib
TYK2 = TYK2 (Homo sapiens, UniProt P29597); test: Nanosyn kinase profiling, mobility shift assay; settings: read-out: % inhibition by neratinib
Raw264.7 cells = test: RT-PCR of LPS-induced TNFα, IL-1β, IL-6 expression; settings: 100 ng/mL LPS 4 h
Text: One microgram of cDNA of each treatment sample was synthesized by using SuperScript III First-Strand Synthesis (Invitrogen). Taqman mouse primers were purchased from ThermoFisher: TNFα (Catalog No. Mm00443258_m1), IL-6 (Catalog No. Mm00446190_m1), IL-1β (Catalog No. Mm00434228_m1), and GAPDH as endogenous housekeeping control (Catalog No. Mm99999915_g1). The qPCR reaction was set up for TNFα, IL-6, IL-1β, and GAPDH individually, with technical triplicates for each gene per treatment sample and performed by the Applied Biosystems ViiA 7 real-time PCR system. The ∆∆CT method was used to analyze the relative changes in gene expression.

MST1–LATS2 signaling = test: LATS-BS in vitro luciferase assay (MST1/LATS2 overexpression); settings: for Firefly/Renilla x1000 (MEAN): L2/Mst1 overexpression + 10 μM compound
Text: Therefore a LATS-BS construct has been generated with fusion of YAP fragment and 14-3-3 with N-terminal and C-terminal firefly luciferase fragments (N-luc and C-luc), respectively that assesses LATS kinase activity by measuring the interaction between pS127-YAP and 14-3-3[35] in a MST1–LATS2-phosphorylation-dependent manner (Fig. 4a).
As internal transfection control, pRL-Renilla luciferase control reporter vector (Promega) was co-transfected into each sample. […] Luciferase signal was calculated based on the ratio of luciferase activity of LATS-BS to control reporter vector.

[6] = system: isolated islets from WT mice; test: β-cell apoptosis (TUNEL/insulin) under diabetogenic conditions, WT islets
human islets = test: Western blot of pMST1 and caspase-3 cleavage under diabetogenic conditions; settings: 72 h, six donors

P38-ALPHA, sequence (Q16539 whole entry): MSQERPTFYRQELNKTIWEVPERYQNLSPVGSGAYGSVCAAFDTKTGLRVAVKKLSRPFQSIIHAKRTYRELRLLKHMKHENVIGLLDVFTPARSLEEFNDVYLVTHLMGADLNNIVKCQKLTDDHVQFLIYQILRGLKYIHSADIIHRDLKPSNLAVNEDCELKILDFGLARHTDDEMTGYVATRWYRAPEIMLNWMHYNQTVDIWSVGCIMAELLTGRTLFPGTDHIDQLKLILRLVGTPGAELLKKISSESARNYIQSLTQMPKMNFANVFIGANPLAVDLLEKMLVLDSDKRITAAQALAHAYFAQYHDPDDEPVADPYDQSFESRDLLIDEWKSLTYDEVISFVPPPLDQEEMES
MEK6, sequence (P52564 whole entry): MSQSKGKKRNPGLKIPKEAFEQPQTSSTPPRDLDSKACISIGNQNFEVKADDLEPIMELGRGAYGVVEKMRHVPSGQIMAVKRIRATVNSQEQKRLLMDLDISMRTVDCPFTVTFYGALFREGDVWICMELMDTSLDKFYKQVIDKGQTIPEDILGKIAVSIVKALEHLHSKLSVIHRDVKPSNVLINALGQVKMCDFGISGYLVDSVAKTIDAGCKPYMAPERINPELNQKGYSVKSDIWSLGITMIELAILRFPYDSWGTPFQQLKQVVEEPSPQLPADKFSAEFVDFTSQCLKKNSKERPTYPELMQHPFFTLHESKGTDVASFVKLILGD
LCK, sequence (P06239 whole entry, species assumed): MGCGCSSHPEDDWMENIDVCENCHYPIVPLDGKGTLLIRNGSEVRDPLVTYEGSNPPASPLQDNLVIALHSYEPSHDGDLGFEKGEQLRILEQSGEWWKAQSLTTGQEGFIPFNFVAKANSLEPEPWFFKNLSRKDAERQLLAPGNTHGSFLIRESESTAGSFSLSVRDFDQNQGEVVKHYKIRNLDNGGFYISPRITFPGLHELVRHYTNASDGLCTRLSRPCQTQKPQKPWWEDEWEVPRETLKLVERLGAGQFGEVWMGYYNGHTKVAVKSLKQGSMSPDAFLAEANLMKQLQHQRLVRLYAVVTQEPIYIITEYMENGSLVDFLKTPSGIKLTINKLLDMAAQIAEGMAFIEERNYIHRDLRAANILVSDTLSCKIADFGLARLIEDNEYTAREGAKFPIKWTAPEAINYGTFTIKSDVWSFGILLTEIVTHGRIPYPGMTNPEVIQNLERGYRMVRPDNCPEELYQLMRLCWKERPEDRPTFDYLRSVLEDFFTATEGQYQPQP
PRKD2, sequence (Q9BZL6 whole entry): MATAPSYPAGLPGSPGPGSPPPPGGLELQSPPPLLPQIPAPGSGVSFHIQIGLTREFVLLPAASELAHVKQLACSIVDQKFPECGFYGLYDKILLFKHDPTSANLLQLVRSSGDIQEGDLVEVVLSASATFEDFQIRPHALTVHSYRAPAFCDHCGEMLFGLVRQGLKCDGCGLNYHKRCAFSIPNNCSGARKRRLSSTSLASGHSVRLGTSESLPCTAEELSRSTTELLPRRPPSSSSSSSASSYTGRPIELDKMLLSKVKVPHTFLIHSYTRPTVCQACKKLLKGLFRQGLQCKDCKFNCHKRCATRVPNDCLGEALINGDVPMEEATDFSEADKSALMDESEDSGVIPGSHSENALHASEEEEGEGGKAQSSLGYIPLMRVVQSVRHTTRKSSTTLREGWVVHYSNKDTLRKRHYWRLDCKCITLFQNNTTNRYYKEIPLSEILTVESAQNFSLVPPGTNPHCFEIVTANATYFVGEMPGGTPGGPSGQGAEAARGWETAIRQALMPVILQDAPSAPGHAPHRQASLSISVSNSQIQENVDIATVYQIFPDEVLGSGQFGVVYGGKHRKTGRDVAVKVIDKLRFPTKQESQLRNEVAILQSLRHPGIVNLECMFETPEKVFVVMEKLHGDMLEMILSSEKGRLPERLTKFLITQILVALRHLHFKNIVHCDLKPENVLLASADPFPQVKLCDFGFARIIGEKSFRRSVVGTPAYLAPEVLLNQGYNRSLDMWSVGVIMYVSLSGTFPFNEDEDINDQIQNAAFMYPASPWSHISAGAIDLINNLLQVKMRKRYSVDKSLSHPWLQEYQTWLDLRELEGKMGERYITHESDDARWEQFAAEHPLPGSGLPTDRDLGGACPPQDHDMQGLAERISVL
TYK2, sequence (P29597 whole entry): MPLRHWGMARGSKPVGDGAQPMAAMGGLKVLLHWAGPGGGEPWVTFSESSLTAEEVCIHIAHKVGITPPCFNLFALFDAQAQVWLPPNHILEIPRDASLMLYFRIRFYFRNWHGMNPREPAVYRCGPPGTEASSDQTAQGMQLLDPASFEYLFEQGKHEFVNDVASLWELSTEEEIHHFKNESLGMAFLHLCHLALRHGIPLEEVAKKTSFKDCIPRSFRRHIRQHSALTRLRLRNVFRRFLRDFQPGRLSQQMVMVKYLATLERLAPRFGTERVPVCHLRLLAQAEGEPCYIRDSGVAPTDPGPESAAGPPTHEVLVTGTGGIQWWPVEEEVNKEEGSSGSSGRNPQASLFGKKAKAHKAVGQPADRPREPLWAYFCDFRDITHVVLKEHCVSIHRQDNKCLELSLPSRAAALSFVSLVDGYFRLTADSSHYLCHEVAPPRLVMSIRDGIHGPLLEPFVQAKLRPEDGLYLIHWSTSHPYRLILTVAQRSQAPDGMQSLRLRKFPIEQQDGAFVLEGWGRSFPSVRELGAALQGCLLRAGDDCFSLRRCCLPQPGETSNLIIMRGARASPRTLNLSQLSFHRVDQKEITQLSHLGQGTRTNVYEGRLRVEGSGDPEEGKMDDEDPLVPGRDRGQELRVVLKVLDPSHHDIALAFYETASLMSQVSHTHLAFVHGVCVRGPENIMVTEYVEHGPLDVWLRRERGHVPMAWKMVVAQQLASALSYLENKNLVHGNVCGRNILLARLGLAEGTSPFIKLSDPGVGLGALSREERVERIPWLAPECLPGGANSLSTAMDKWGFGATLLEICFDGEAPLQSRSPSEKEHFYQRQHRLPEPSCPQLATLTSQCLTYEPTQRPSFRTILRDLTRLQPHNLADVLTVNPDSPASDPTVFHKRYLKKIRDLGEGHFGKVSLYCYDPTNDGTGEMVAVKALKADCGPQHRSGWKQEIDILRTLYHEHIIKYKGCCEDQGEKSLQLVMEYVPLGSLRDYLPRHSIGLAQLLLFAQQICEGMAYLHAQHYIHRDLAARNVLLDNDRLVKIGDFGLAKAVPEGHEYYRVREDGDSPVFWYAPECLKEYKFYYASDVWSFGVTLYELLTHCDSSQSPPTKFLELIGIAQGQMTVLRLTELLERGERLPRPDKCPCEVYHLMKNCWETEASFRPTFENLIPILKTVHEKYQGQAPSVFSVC

For `CCOc1cc2ncc(C#N)c(Nc3ccc(OCc4ccccn4)c(Cl)c3)c2cc1NC(=O)/C=C/CN(C)C` [neratinib], the body weight [1] was “no influence on body weight”, the “ipITT normalized to 100” value ([2]; 0 min after ins) was 100 and the “ipITT normalized to 100” value ([2]; 15 min after ins) was 132.381. The “ipITT normalized to 100” value ([2]; 30 min after ins) was 111.751, the “ipITT normalized to 100” value ([2]; 60 min after ins) was 88.1279 and the “ipITT normalized to 100” value ([2]; 90 min after ins) was 87.8414. For the same molecule, the “basal glucose lower in neratinib-treated mice after a short fast of 4 h” value ([2]; db/db) was 20%, the “response to insulin challenge (ipITT)” value ([2]; db/db) was “modestly reduced ability to lower their glucose levels” and the “AUC ipITT” value ([2]; insert 8d, normalized to 100, individual mice) was 11197.2 and 9260.59 and 10559.8 and 6670.17 and 8196.06 and 9385.6. The “MEAN AUC ipITT” value ([2]; insert 8d, normalized to 100, mean) was 9211.58, the ipITT ([2]; time 0, MEAN) was 336.667 and the ipITT ([2]; time 0, individual mice) was 327 and 354 and 301 and 357 and 292 and 389. For the same molecule, the ipITT ([2]; time 15, MEAN) was 444.667, the ipITT ([2]; time 15, individual mice) was 477 and 480 and 417 and 432 and 371 and 491 and the ipITT ([2]; time 30, MEAN) was 371.5. The ipITT ([2]; time 30, individual mice) was 455 and 383 and 437 and 224 and 323 and 407, the ipITT ([2]; time 60, MEAN) was 297.167 and the ipITT ([2]; time 60, individual mice) was 397 and 342 and 303 and 176 and 182 and 383. The ipITT ([2]; time 90, MEAN) was 295.833, the ipITT ([2]; time 90, individual mice) was 324 and 270 and 290 and 289 and 230 and 372 and the pHH3 %/ mouse ([3]; Mean) was 0.4112%. For the same molecule, the pHH3 %/ mouse ([3]; individual mice) was 0.7567% and 0.6289% and 0.2824% and 0.1109% and 0.2748% and 0.4135%, the inhibition at 10 µM (LCK) was 96% and the inhibition at 10 µM (MST1 [4]; read-out: % inhibition by neratinib) was 98%. For the same molecule, the inhibition at 3 µM (MST1 [4]; read-out: MST1 inhibition) was 97%, the “MST1 (% activity)” value (MST1 [5]; neratinib 0.02 nM) was 87.31% and 98.20% and 108.86% and the “MST1 (% activity)” value (MST1 [5]; neratinib 0.06 nM) was 99.80% and 103.92%. The activity at 60 pM (MST1 [5]; neratinib 0.06 nM) was 114%, the “MST1 (% activity)” value (MST1 [5]; neratinib 0.17 nM) was 91.02% and 100.09% and the activity at 0.00017 µM (MST1 [5]; neratinib 0.17 nM) was 97.1%. For the same molecule, the “MST1 (% activity)” value (MST1 [5]; neratinib 0.51 nM) was 98.60% and 98.84%, the activity at 0.00051 µM (MST1 [5]; neratinib 0.51 nM) was 101% and the “MST1 (% activity)” value (MST1 [5]; neratinib 1.52 nM) was 88.42% and 89.31%. The activity at 0.00152 µM (MST1 [5]; neratinib 1.52 nM) was 103%, the “MST1 (% activity)” value (MST1 [5]; neratinib 4.57 nM) was 67.07% and 80.02% and the activity at 0.00457 µM (MST1 [5]; neratinib 4.57 nM) was 82.2%. For the same molecule, the “MST1 (% activity)” value (MST1 [5]; neratinib 13.72 nM) was 46.34% and 78.85% and 63.80%, the “MST1 (% activity)” value (MST1 [5]; neratinib 41.15 nM) was 53.70% and 49.03% and the activity at 0.04115 µM (MST1 [5]; neratinib 41.15 nM) was 48.9%. For the same molecule, the “MST1 (% activity)” value (MST1 [5]; neratinib 123.46 nM) was 24.15% and 30.50%, the activity at 0.12346 µM (MST1 [5]; neratinib 123.46 nM) was 30.6% and the “MST1 (% activity)” value (MST1 [5]; neratinib 370.37 nM) was 7.98% and 6.57%. The activity at 0.37037 µM (MST1 [5]; neratinib 370.37 nM) was 11.7%, the “MST1 (% activity)” value (MST1 [5]; neratinib 1111.11 nM) was 8.75% and 1.83% and the “MST1 (% activity)” value (MST1 [5]; neratinib 3333.33 nM) was 4.17% and -2.20% and -1.83%. For the same molecule, the body weight (db/db model: body weight) was “no influence on body weight”, the inhibition at 10 µM (MEK6) was 9% and the inhibition at 10 µM (P38-ALPHA) was 15%. It also gave an inhibition at 10 µM (PRKACA) of 3%, an inhibition at 10 µM (PRKD2) of 71% and an inhibition at 10 µM (TYK2) of 15%. For the same molecule, the “LPS-induced expression of TNFα, IL-1β, and IL-6” value (Raw264.7 cells) was “largely inhibited”, the “MST1/LATS2-induced luciferase activity (LATS-BS)” value (MST1–LATS2 signaling; 10 μM, last 24 h) was “strongly inhibited” and the “Firefly/Renilla x1000 (MEAN)” value (MST1–LATS2 signaling; mean of six dishes) was 10.9109. For the same molecule, the “Firefly/Renilla x1000 (MEAN)” value (MST1–LATS2 signaling; single culture dishes) was 12.1618, the “cytokine- and glucolipotoxicity-induced apoptosis in WT islets” value ([6]; 10 μM, 72 h) was “reduced cytokine- and glucolipotoxicity-induced apoptosis” and the “mean TUNEL/isolation/%” value ([6]; WT HG/Pal Nera 10 μM 72 h, mean) was 370.621%. For the same molecule, the “mean TUNEL/isolation/%” value ([6]; WT HG/Pal Nera 10 μM 72 h, single isolations, WT untreated = 100) was 424.349% and 323.811% and 387.381% and 346.941%, the “mean TUNEL/isolation/%” value ([6]; WT ILIF Nera 10 μM 72 h, mean) was 814.399% and the “cytokine- and high glucose/palmitate-induced MST1 activation and caspase-3 activation” value (human islets) was “potently and significantly inhibited”.
